According to US20120035244A1, “PARP1 TARGETED THERAPY” (THE REGENTS OF THE UNIVERSITY OF MICHIGAN, priority 2010, published 2012):
“Also recorded” adds a separate entry of the source.

Assays:
[1] = test system: VCaP xenografts; assay: VCaP mouse xenograft model; assay type: in vivo, mice
Excerpt: (§1) Olaparib was obtained from Axon Medchem (Groningen, The Netherlands).

[2] = test system: PC3 xenografts; assay: PC3 (PC3-control) mouse xenograft model; assay type: in vivo, mice; details: PC3 / PC3-control (ETS negative); Olaparib 40 mg/kg IP, NU7026 25 mg/kg IP
Excerpt: as §1

[3] = test system: PC3-LACZ xenografts; assay: PC3-LACZ mouse xenograft model; assay type: in vivo, mice; details: PC3-LACZ (ETS negative)
Excerpt: as §1

[4] = test system: VCaP cells; assay: γ-H2A.X immunofluorescence, VCaP cells; assay type: cell-based, human; details: Olaparib for 48 hours
Description: Cells were seeded at 25,000 cells/mL in 4-well chamber slide 24 hours prior to the addition of siRNA or drug as indicated. Merbarone (Sigma) was dissolved in DMSO and stored at 4° C. Cells were then washed once in PBS, fixed for 15 minutes in 100% methanol, washed in PBS, permeabilized for 5 minutes in PBS containing 0.2% Triton-X, washed twice in PBS, blocked for 30 minutes in PBS containing 0.5% donkey serum (Sigma, St. Louis, Mo.), held for 45 minutes in PBS containing 0.5% donkey serum and primary antibody: anti-γ-H2A.X mouse monoclonal (Millipore Cat #05-636), anti-γ-H2A.X rabbit polyclonal (Cell Signaling, Cat #9719, Danvers, Mass.), and anti-53BP1 rabbit polyclonal (Cell Signaling, Cat #4937, Danvers, Mass.) washed 3 times with PBS, held for 30 minutes in PBS containing 0.5% donkey serum and secondary antibody: Alexa Fluor 488-anti-Mouse (Invitrogen) or Alexa Fluor 594-anti-Rabbit (Invitrogen). Cells were then stained with DAPI for 5 minutes and slides were mounted 12 hours prior to analysis using Vectashield (Vector laboratories, Burlingame, Calif.). Images were taken using 100× oil lens on an Olympus Confocal microscope at the University of Michigan microscopy imaging lab.

[5] = test system: BRCA2 shRNA PC3 cells; assay: Neutral COMET assay, BRCA2 shRNA PC3 cells; assay type: cell-based, human; details: P=0.14 and P=0.003, two-way ANOVA
Description: VCaP, PC3, PrEC or RWPE cells were seeded at 250,000 cells/mL in a 6-well plate 24 hours prior to treatment with siRNA, drug or vehicle control. After 48 hours, cells were trypsinized, harvest by centrifugation and re-suspend in PBS. Cell counts were then normalized to 1×10^5 cells/mL. Suspended cells (25 μL) were then mixed with 250 μL 1.0% ultrapure low melting point agarose (Invitrogen) made in 1× Tris-Borate buffer. The agarose-cell mixture was then dropped onto slides allowed to solidify at 4° C. in the dark for 20 minutes before immersion in COMET assay lysis solution (Trevigen, Gaithersburg, Md.) at 4° in the dark for 45 minutes. Excess buffer was then removed and slides were submerged in freshly prepared neutral solution (Tris Base 60.57 g, Sodium Acetate 204.12 g, dissolve in 450 ml of dH2O, adjust to pH=9.0 with glacial acetic acid) at room temperature in the dark for 40 minutes. Slides were then washed twice by immersing in 1×TBE buffer prior to neutral electrophoresis at 20 volts for 30 minutes. Slides were then fixed in 70% ethanol for 5 minutes. […] COMET tail moments were then assessed using COMETscore.v1.5 (AutoCOMET.com, Sumerduck, Va.) image processing software as described by the manufacturer with greater than 100 cells analyzed in triplicate experiments.

[6] = test system: Ewing's sarcoma cell lines; assay: Ewing's sarcoma cell lines: soft agar colony formation and neutral COMET assays; assay type: cell-based; details: with or without 10 μM Olaparib for 48 hours (COMET); soft agar colony formation
Description: The effect of PARP1 inhibitors on Ewing's sarcoma cell lines was assayed. CADO-ES1 or RD-ES1 cells were treated with siRNA for 48 hours. Cells were then harvested and plated in a transwell migration assay. Forty eight hours later, cells were stained with crystal violet and the total number or invaded cells was quantified. Soft agar colony formation was performed on cells treated with or without Olaparib. Neutral COMET assays were performed on a panel of Ewing's Sarcoma cell lines. PC3 was used as an ETS negative control and PC3-ERG for comparison to an ETS positive model. Cells were treated with or without 10 μM Olaparib for 48 hours. D) As in C, except cells were pre-treated with siRNA for 48 hours. All experiments were run in triplicate. Error bars are standard error of the mean.

[7] = test system: PC3 cells; assay: Colony formation after radiation, isogenic PC3 model overexpressing T2:ERG; assay type: cell-based; details: PC3, pre-treated with 10 μM Olaparib
Description: The effect of ETS overexpression on radioresistance was assayed. Isogenic PC3 or DU145 models overexpressing either T2:ERG or ERG with a deleted ETS domain were pre-treated with or without 10 μM Olaparib and then treated with different doses of radiation as indicated. Colony formation was assessed. Experiments were also performed in which cells were pre-treated with either PARP1 or control siRNA prior to radiation. Western blot analysis was used to assess PARP knockdown efficiency in the inset. Total Poly(ADP-ribose) (or PAR) levels were assessed by Western blot analysis from total cell lysates. All experiments were run in triplicate. Error bars are standard error of the mean.

[8] = Fong et al., N Engl J Med 361, 123-134 (2009); cited from earlier work

In the case of `O=C(c1cc(Cc2n[nH]c(=O)c3ccccc23)ccc1F)N1CCN(C(=O)C2CC2)CC1` [Olaparib, 4-[3-(4-Cyclopropanecarbonylpiperazine-1-carbonyl)-4-fluorobenzyl]-2H-phthalazin-1-one], the “dose dependence of VCaP tumor growth response” value ([1]; Olaparib) is reported as “dose dependent”, the “tumor growth relative to the vehicle control” value ([1]; VCaP, Olaparib 40 mg/kg/day IP (P=0.001), NU7026 25 mg/kg/day IP (p=0.004)) is reported as “significant reduction of tumor growth” and the xenograft growth [2] is reported as “did not block the growth; also recorded: did not significantly inhibit xenograft growth”. The xenograft growth [3] was “did not significantly inhibit xenograft growth”, the γ-H2A.X foci [4] was “very high level of γ-H2A.X foci” and the “COMET tail moments versus Olaparib treated ETS overexpressing cells” value [5] was “slightly larger tail moments”. For the same compound, the “sensitivity of Ewing's sarcoma cell lines” value [6] was “sensitive to PARP1; also recorded: sensitive to PARP inhibition”, the “ERG induced radiation resistance (colony formation)” value [7] was “blocks ERG induced radiation resistance; also recorded: reversed by PARP inhibition” and the “tolerability in cancer patients” value [8] was “well tolerated in cancer patients with a minimal side effect profile; also recorded: well tolerated at doses capable of inhibiting PARP activity”.
